Source: ChEMBL document CHEMBL1201862, “PubChem BioAssay data set” (2004)
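Exposure lasted 48 hours, with cells grown in 96-well plates and compounds tested at five concentrations. The concentration for 50% growth inhibition is given as GI50.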 Activity calls are given as the source filed them. No stated cut-off is given here; in the data, active = GI50 up to about 1.1 µM and inactive = higher.

Tests used:
Assay in all cases: NCI tumour cell line growth inhibition, 48 h
SK-MEL-2 = test system: SK-MEL-2
MDA-MB-231 = test system: MDA-MB-231
MCF7 = test system: MCF7
RPMI-8226 = test system: RPMI-8226
UO-31 = test system: UO-31
OVCAR-4 = test system: OVCAR-4
RXF 393 = test system: RXF 393
K562 = test system: K562
KM12 = test system: KM12
CCRF-CEM = test system: CCRF-CEM
786-0 = test system: 786-0
NCI-H522 = test system: NCI-H522
COLO 205 = test system: COLO 205
MDA-MB-435 = test system: MDA-MB-435
TK-10 = test system: TK-10
Malme-3M = test system: Malme-3M
M14 = test system: M14
A549 = test system: A549
SF-539 = test system: SF-539
SNB-75 = test system: SNB-75

Row | Compound | GI50 (SK-MEL-2) | GI50 (MDA-MB-231) | GI50 (MCF7) | GI50 (RPMI-8226) | GI50 (UO-31) | GI50 (OVCAR-4) | GI50 (RXF 393) | GI50 (K562) | GI50 (KM12) | GI50 (CCRF-CEM) | GI50 (786-0) | GI50 (NCI-H522) | GI50 (COLO 205) | GI50 (MDA-MB-435) | GI50 (TK-10) | GI50 (Malme-3M) | GI50 (M14) | GI50 (A549) | GI50 (SF-539) | GI50 (SNB-75)
1 | Fc1ccc(Oc2nc3ccccc3nc2-c2ccccc2)cc1 | > 100 µM (inactive) | > 100 µM (inactive) | > 100 µM (inactive) | 81.7 µM (inactive) | > 100 µM (inactive) | 36.5 µM (inactive) | 37.2 µM (inactive) | > 100 µM (inactive) | > 100 µM (inactive) | > 100 µM (inactive) | 80 µM (inactive) | 71.8 µM (inactive) | > 100 µM (inactive) | > 100 µM (inactive) | > 100 µM (inactive) | > 100 µM (inactive) |  |  |  | 
2 | O=C1c2ccccc2C(=O)c2c1ccc(C(=O)O)c2-c1ccc2ccccc2c1 | 19.1 µM (inactive) | 23.2 µM (inactive) | 3.42 µM (inactive) | 27.7 µM (inactive) | 21.2 µM (inactive) | 30.8 µM (inactive) |  | 25.9 µM (inactive) | 27 µM (inactive) | 23.3 µM (inactive) | 28.2 µM (inactive) | 23.7 µM (inactive) | 10.4 µM (inactive) | 23.8 µM (inactive) | 61.2 µM (inactive) | 24.1 µM (inactive) | 20.5 µM (inactive) | 30.5 µM (inactive) | 25.8 µM (inactive) | 
3 | COc1ccc(NC(=S)N/N=C\c2ccc(NC(C)=O)cc2)cc1 | > 100 µM (inactive) | > 100 µM (inactive) |  | > 100 µM (inactive) | > 100 µM (inactive) | > 100 µM (inactive) |  |  | > 100 µM (inactive) | > 100 µM (inactive) | > 100 µM (inactive) | > 100 µM (inactive) | > 100 µM (inactive) | > 100 µM (inactive) | > 100 µM (inactive) | > 100 µM (inactive) | > 100 µM (inactive) | > 100 µM (inactive) |  | > 100 µM (inactive)
4 | O=C(O)CCCN1CCCCC1 | > 100 µM (inactive) | > 100 µM (inactive) |  | > 100 µM (inactive) | > 100 µM (inactive) | > 100 µM (inactive) | > 100 µM (inactive) | > 100 µM (inactive) | > 100 µM (inactive) | > 100 µM (inactive) | > 100 µM (inactive) | > 100 µM (inactive) |  | > 100 µM (inactive) | > 100 µM (inactive) | > 100 µM (inactive) | > 100 µM (inactive) | > 100 µM (inactive) |  | > 100 µM (inactive)
5 | Nn1c(S)nnc1C12CC3CC(CC(C3)C1)C2 | > 100 µM (inactive) | > 100 µM (inactive) |  | > 100 µM (inactive) | > 100 µM (inactive) | > 100 µM (inactive) | > 100 µM (inactive) | > 100 µM (inactive) | > 100 µM (inactive) | > 100 µM (inactive) | > 100 µM (inactive) | > 100 µM (inactive) | > 100 µM (inactive) | > 100 µM (inactive) | > 100 µM (inactive) | > 100 µM (inactive) | > 100 µM (inactive) | > 100 µM (inactive) | > 100 µM (inactive) | > 100 µM (inactive)
6 | N#CC(c1nc2ccccc2s1)c1nc(Cl)ncc1Br (configuration not stated) |  | 39.2 µM (inactive) |  | 25.4 µM (inactive) | 36.7 µM (inactive) | 47.8 µM (inactive) | 26.9 µM (inactive) |  | 40.1 µM (inactive) |  | 30.3 µM (inactive) | 20.7 µM (inactive) | 46.3 µM (inactive) | 50.6 µM (inactive) | 37.3 µM (inactive) | 41.4 µM (inactive) | 44.6 µM (inactive) | 46.5 µM (inactive) | 31.5 µM (inactive) | 23.2 µM (inactive)
7 | NC(=O)/N=C(\N)NC(=O)c1ccccc1 | > 100 µM (inactive) | > 100 µM (inactive) |  |  | > 100 µM (inactive) |  | > 100 µM (inactive) | > 100 µM (inactive) | > 100 µM (inactive) |  | > 100 µM (inactive) | > 100 µM (inactive) |  | > 100 µM (inactive) | > 100 µM (inactive) | > 100 µM (inactive) | > 100 µM (inactive) | > 100 µM (inactive) |  | 
8 | CC#CC#C/C(=C/C=CC(=O)OC)SC | > 100 µM (inactive) | > 100 µM (inactive) | > 100 µM (inactive) |  |  | > 100 µM (inactive) |  | > 100 µM (inactive) | > 100 µM (inactive) | > 10 µM (inactive) | > 100 µM (inactive) | > 100 µM (inactive) | > 100 µM (inactive) | > 100 µM (inactive) | > 100 µM (inactive) | > 100 µM (inactive) | > 100 µM (inactive) | > 100 µM (inactive) | > 100 µM (inactive) | 39.4 µM (inactive)
9 | Cc1ccc(OCC2=NN3C(=O)/C(=C\c4ccc([N+](=O)[O-])o4)SC3N2)cc1 (configuration not stated) | 15.7 µM (inactive) | 12.4 µM (inactive) |  | 2.16 µM (inactive) | 15.4 µM (inactive) | 2.99 µM (inactive) | 14.9 µM (inactive) | 0.711 µM (active) | 15.8 µM (inactive) | 2.99 µM (inactive) | 10.2 µM (inactive) | 1.82 µM (inactive) | 3.19 µM (inactive) | 5.47 µM (inactive) | 16.5 µM (inactive) | 2.66 µM (inactive) | 8.47 µM (inactive) | 19 µM (inactive) | 2 µM (inactive) | 15.9 µM (inactive)
10 | COc1cc2c(c(N)c1OC)C(=O)/C(=C/c1cc(C)c(O)c(C)c1)C2 |  | 0.0141 µM (active) | < 0.01 µM (active) | < 0.01 µM (active) |  | 7.91 µM (inactive) | 0.0323 µM (active) | < 0.01 µM (active) | < 0.01 µM (active) | < 0.01 µM (active) | < 0.01 µM (active) | < 0.01 µM (active) | 5.6 µM (inactive) | < 0.01 µM (active) | > 76 µM (inactive) |  | < 0.01 µM (active) | < 0.01 µM (active) | < 0.01 µM (active) | 
11 | CC(C)(C)c1ccc(-c2nnc(-c3cc(C#N)cc(-c4nnc(-c5ccc(C(C)(C)C)cc5)o4)c3)o2)cc1 | > 100 µM (inactive) | > 100 µM (inactive) |  | > 100 µM (inactive) | > 100 µM (inactive) | > 100 µM (inactive) | 0.0107 µM (active) | > 100 µM (inactive) | > 100 µM (inactive) | > 100 µM (inactive) | 50.2 µM (inactive) | > 100 µM (inactive) | > 100 µM (inactive) | > 100 µM (inactive) | > 100 µM (inactive) | > 100 µM (inactive) | > 100 µM (inactive) | > 100 µM (inactive) |  | 88.9 µM (inactive)
12 | C#Cc1cccc(N2C(=O)CCC2=O)c1 | 19.9 µM (inactive) | 12.2 µM (inactive) | 19.4 µM (inactive) | 2.49 µM (inactive) | 17.7 µM (inactive) | 13.1 µM (inactive) |  | 2.65 µM (inactive) | 13.6 µM (inactive) | 1.56 µM (inactive) | 18 µM (inactive) | 4.17 µM (inactive) | 6.73 µM (inactive) | 17.3 µM (inactive) | 16.2 µM (inactive) | 14.7 µM (inactive) | 7.62 µM (inactive) | 21.4 µM (inactive) | 21.5 µM (inactive) | 13.6 µM (inactive)
13 | O=C(O)C(/C=C/c1ccccc1)c1ccccc1 (configuration not stated) | > 100 µM (inactive) | > 100 µM (inactive) | > 100 µM (inactive) | > 100 µM (inactive) | > 100 µM (inactive) |  | > 100 µM (inactive) | 84.3 µM (inactive) |  | 14.3 µM (inactive) | > 100 µM (inactive) | 69.7 µM (inactive) | > 100 µM (inactive) |  | > 100 µM (inactive) | > 100 µM (inactive) | > 100 µM (inactive) | > 100 µM (inactive) | > 100 µM (inactive) | > 100 µM (inactive)
14 | CON(C)C(=O)C(C)N(Cc1ccccc1)Cc1ccccc1 (configuration not stated) |  |  | 58.3 µM (inactive) | 42.8 µM (inactive) | 38.5 µM (inactive) |  | > 100 µM (inactive) | 40.5 µM (inactive) | > 100 µM (inactive) | 50.8 µM (inactive) | > 100 µM (inactive) |  |  | 88.9 µM (inactive) | > 100 µM (inactive) | > 100 µM (inactive) | 68.7 µM (inactive) | 57 µM (inactive) | > 100 µM (inactive) | 36.9 µM (inactive)
15 | O=C(O)CCC(=O)Nc1ccc2c(c1)S(=O)(=O)N(CC(=O)O)C2=O | > 100 µM (inactive) | > 100 µM (inactive) | > 100 µM (inactive) | > 100 µM (inactive) | > 100 µM (inactive) | > 100 µM (inactive) |  | > 100 µM (inactive) | 21.9 µM (inactive) | > 100 µM (inactive) | > 100 µM (inactive) | > 100 µM (inactive) | > 100 µM (inactive) | > 100 µM (inactive) | > 100 µM (inactive) | 39.2 µM (inactive) | > 100 µM (inactive) | > 100 µM (inactive) | > 100 µM (inactive) | 
16 | CN(C)c1ccc(/C=C/c2cc(-c3ccccc3)[n+](C)n2-c2ccccc2)cc1 | 0.224 µM (active) | 0.242 µM (active) | 0.157 µM (active) | 0.0221 µM (active) | 1.86 µM (inactive) | 6.41 µM (inactive) | 0.281 µM (active) | 0.0531 µM (active) | 0.0635 µM (active) | 0.035 µM (active) | 0.43 µM (active) | < 0.01 µM (active) | 0.094 µM (active) | 0.158 µM (active) | 1.7 µM (inactive) |  | 0.617 µM (active) | 0.411 µM (active) | 1.49 µM (inactive) | 
